What was measured:
Assay type in all cases: in vivo
[1] = system: six broadleaf weeds (CASOB, IPOHE, ABUTH, AMARE, CHEAL, XANST); test: Greenhouse pre-emergence test, mean control of six broadleaf weeds; details: soil surface spray 1 day after planting, visual rating 0-100% after two weeks, grass herbicides 1000 g/ha, atrazine 1680 g/ha, isoxaflutole 78 g/ha, B-128 125 g/ha
Description: (§1) Seeds of weed species were sown in 10 cm square plastic pots containing a 3:2:1 sand:soil:peat mixture. Species included six broadleaf weeds, CASOB (Cassia obtusifolia, L., sicklepod), IPOHE (Ipomoea hederacea, L., ivyleaf morningglory), ABUTH (Abutilon theophrastii, velvetleaf, AMARE (Amaranthus retroflexus, redroot pigweed), CHEAL (Chenopodium album, lambsquarters) and XANST (Xanthium strumarium, cocklebur ), four grass weeds, SORHA (Sorghum halepense, johnsongrass), SETVI (Setaria viridis, green foxtail), ECHCG (Echinochloa crus-galli, bamyardgrass), and DIGSA (Digitria sanguinalis, large crabgrass) and four crops species, Zea mays, Glycine max L. Triticum aestivum, and Oryza sativa. Herbicide treatments were applied in water carrier via automated track sprayer to the soil surface of these pots 1 day after planting. The sprayer was calibrated to deliver the material in a volume of 187 l/ha through a TJ8001E spray nozzle at a pressure of 40 PSI.
(§2) Treatments included the compounds of formula I numbers 1, 15, 16 and 23, the commercial grass herbicides metolachlor S (Dual II Magnum®), acetochlor (Harness®), alachlor (Lasso MT®) alone and in combination with three broadleaf herbicides, atrazine, isoxaflutole and compound B-128 (Table 2). All grass herbicides (compounds 1, 15, 16, 23, metolachlor S, acetochlor and alachor were applied at a rate of 1000 g/ha. The broadleaf herbicides were applied at 1680 g/ha for atrazine, 78 g/ha for isoxaflutole and 125 g/ha for B-128.
(§3) After treatment, pots were returned to a greenhouse where they were watered and held in good growth conditions for two weeks. At the end of two weeks, herbicidal efficacy was evaluated visually using a rating system from 0-100%, where 0=no inhibition of growth, and 100=complete death of all plants in the testing unit. Results are reported in table 3 as the mean control of all six broadleaf weeds, mean control of all four grass weeds and the phytotoxicity to maize.

[2] = system: four grass weeds (SORHA, SETVI, ECHCG, DIGSA); test: Greenhouse pre-emergence test, mean control of four grass weeds; details: soil surface spray 1 day after planting, visual rating 0-100% after two weeks, grass herbicides 1000 g/ha, atrazine 1680 g/ha, isoxaflutole 78 g/ha, B-128 125 g/ha
Description: as §1, §2, §3

[3] = system: Amaranthus retroflexus, Abutilon theophrasti, Chenopodium album, Ipomoea hederacea, and Setaria viridis; test: Field trials, overall herbicidal performance in words
Description: (§4) Two field trials were established on contrasting soil types. Trial 1 was on a soil with low organic matter and high sand content, and trial 2 was on a clay loam soil with moderate amounts of organic matter. In both cases, the soil was overseeded (followed by light tillage) with seeds of Amaranthus retroflexus, Abutilon theophrasti, Chenopodium album, Ipomoea hederacea, and Setaria viridis to ensure consistent weed populations. Maize was planted with 30 inches between rows. Immediately after planting the maize, herbicidal treatments were applied using a boom sprayer equipped with Tee Jet 110-015 nozzles applying the spray solution at a rate of 187 l/hectare. Untreated check plots were included as the basis for comparison of herbicidal efficacy.
(§5) Treatments included the compound of formula I number 16, the commercial grass herbicides metolachlor S (Dual II Magnum®), acetochlor (Harness®) and dimethenamid (Frontier®) alone and in combination with two broadleaf herbicides, atrazine and B-128. All grass herbicides (compound 16, metolachlor S, acetochlor and dimethenamid) were applied at a rate of 1000 g/ha. The broadleaf herbicides were applied at 1680 g/ha for atrazine and 150 g/ha for B-128.
Observations on percent weed control and phytotoxicity to maize were made at 35 days after treatment for field trial 1 and 21 days after application for field trial 2. […]

broadleaf weeds = test: Field trials, mean control of broadleaf weeds; details: grass herbicides 1000 g/ha, atrazine 1680 g/ha, B-128 150 g/ha
Description: as §4, §5
(§6) Observations on percent weed control and phytotoxicity to maize were made at 35 days after treatment for field trial 1 and 21 days after application for field trial 2. All visual estimates were made in comparison to untreated check plots. Results reported are the mean control of broadleaf weeds, and percent control for Setaria viridis, the predominant grassy weed in this experiment.

Setaria viridis = test: Field trials, control of Setaria viridis; details: grass herbicides 1000 g/ha, atrazine 1680 g/ha, B-128 150 g/ha
Description: as §4, §5, §6

maize [4] = test: Field trials, phytotoxicity to maize; details: grass herbicides 1000 g/ha, atrazine 1680 g/ha, B-128 150 g/ha
Description: as §4, §5, §6

maize [5] = test: Greenhouse pre-emergence test, phytotoxicity to maize
Description: as §1, with “PSI. […]” for “PSI.”
as §3, with “Results are reported in table 3 as the mean control of all six broadleaf weeds, mean control of all four grass weeds and the phytotoxicity to maize.” left out

[6] = field trial 1, low organic matter, high sand content soil, 35 days after application
[7] = field trial 2, moderate organic matter, high clay content soil, 21 days after application

| SMILES | broadleaf control [1] [%] | Grass control [2] [%] | performance (in words) ([3]; higher organic, high clay soil, compared with the three standards) | efficacy (in words) ([3]; sandy, low organic matter soil, combined with atrazine or B-128) | broadleaf control (broadleaf weeds; [6]) [%] | broadleaf control (broadleaf weeds; [7]) [%] | S. viridis control (Setaria viridis; [6]) [%] | S. viridis control (Setaria viridis; [7]) [%] | Phytotoxicity (maize [4]; [6]) [%] | Phytotoxicity (maize [4]; [7]) [%] | phytotoxicity to maize (in words) (maize [5]; in vivo) | Phytotoxicity (maize [5]; phytotoxicity to maize, greenhouse, visual rating 0-100% after two weeks, grass herbicides 1000 g/ha, atrazine 1680 g/ha, isoxaflutole 78 g/ha, B-128 125 g/ha) [%] |
| --- | --- | --- | --- | --- | --- | --- | --- | --- | --- | --- | --- | --- |
| CCc1cccc(CC)c1N(CC#N)C(=O)CCl [Cpd 1] | 22 | 100 |  |  |  |  |  |  |  |  |  |  |
| C#CCN(C(=O)CCl)c1c(C)cccc1CC [Cpd 15] | 32 | 100 |  |  |  |  |  |  |  |  |  |  |
| C#CCN(C(=O)CCl)c1c(CC)cccc1CC [Cpd 16] | 53 | 100 | relatively better than two of the three standards | equal efficacy as other herbicides | 33 | 24 | 96 | 75 | 0 | 2 |  |  |
| C#CCN(C(=O)CCl)c1c(C)cccc1C [Cpd 23] | 33 | 100 |  |  |  |  |  |  |  |  | moderately more phytotoxic |  |
| CCc1cccc(C)c1N(C(=O)CCl)[C@@H](C)COC [Metolachlor S, (S)-2-chloro-N-(2-ethyl-6-methylphenyl)-N-(2-methoxy-1-methylethyl)acetamide] | 41 | 100 |  |  | 40 | 18 | 100 | 60 | 0 | 1 |  | 0 |
| CCOCN(C(=O)CCl)c1c(C)cccc1CC [acetochlor, 2-chloro-N-ethoxymethyl-6′-ethylacet-o-toluidide] | 75 | 100 |  |  | 50 | 36 | 99 | 87 |  |  |  |  |
| COCC(C)N(C(=O)CCl)c1c(C)csc1C (centres unmarked) [dimethenamid, 2-chloro-N-[(1-methy-2-methoxyl)ethyl]-N-(2,4-dimethyl-3-thienyl)-acetamide] | 68 | 100 |  |  | 44 | 26 | 100 | 86 |  |  |  |  |

From patent US6455469B1, “Herbicidal composition” (Ishihara Sangyo Kaisha, Ltd., priority 2000, dated 2002)
